Experimental data: patent US9198900B2, “Treatment of peritoneal injury using JAK inhibitors” (Los Angeles Biomedical Research Institute at Harbor-UCLA …, priority 2011, dated 2015)

Key:
[1] = system: human peritoneal mesothelial cells; details: cultured human peritoneal mesothelial cells; cited from earlier work
JAK/STAT signaling = assay: Mesothelial cell exposure to heated PDF in vitro (immunoblot); assay type: cell-based, human
Experimental: Mesothelial cell exposure to heated PDF in vitro activated JAK/STAT signaling and induced the STAT-associated protein periostin. Heat-sterilization of PDF generates GDPs. A commercially available immortalized human mesothelial cell line was cultured in standard medium, then switched to control medium or heat-sterilized PDF (30:70, medium:PDF)×4 hrs. Heated PDF induced STAT1 phosphorylation, and the pan-JAKi P6 attenuated this (immunoblot doublet, FIG. 1A). After 24 hrs, P6 also attenuated the secretion of the injurious STAT-associated protein periostin into the medium (immunoblot triplet, FIG. 1B). Five characteristics of periostin make it an attractive marker of Pbarrier injury. 1) Periostin is a marker and mediator for the adoption of a mesenchymal phenotype by injured or transformed epithelial cells^73-75. 2) It participates in fibrous healing^76. Others show periostin in the Pbarrier of patients with fibrosis and encapsulating peritoneal sclerosis (Braun et al, ASN poster, 2011). 3) Periostin supports neovascularization^77. 4) It has a bidirectional regulatory relationship with TGF-β^78. 5) It's promoter region has STAT1 and 5 binding sites (www|.|sabiosciences|.|com/chipqpersearch.php?species_id=0&nfactor=n&ninfo=n&ngene=n&B2=Search&src=genecard&factor=Over+200+TF&gene=POSTN). Thus, we can use periostin to affirm JAK/STAT signaling and mesothelial dedifferentiation.

peritoneal membrane = assay: Rat PD with 4.25% Dianeal (biPDF), peritoneal histology; assay type: in vivo; details: rats undergoing PD with bioincompatible PDF (biPDF), compared to placebo
Excerpt: In rats, 10 days of PD with 4.25% Dianeal induced mesothelial cell reactive hyperplasia, fibrosis, inflammation, and JAK1 phosphorylation, all of which are attenuated by a JAK1/2 inhibitor. Visceral and parietal peritoneum respond to biPDF differently^33, 88, so only like tissues were compared across treatments.

Met-5A cells = assay: Cleaved caspase-3 Western blot after exposure to peritoneal dialysis fluid; assay type: cell-based; details: 250 nM P6, 24 h; heated PDF, F-PDF, Low GDP-FPDF; FIG. 5N
Experimental: Methods: Met-5A cells were incubated with heated peritoneal dialysis fluid (PDF), filtered (F-PDF) and Low GDP-FPDF with or without 250 nM JAK inhibitor (Jaki) P6, and cells were harvested at 24 h for measuring cleaved caspase-3 by Western blot as an indication of cell death. 100 μg of cell lysate was separated on a 8-16% SDS polyacrylamide gel. Proteins were transferred onto a nitrocellulose membrane, blocked with 5% BSA in TBST and incubated with primary anti-cleaved caspase-3 antibody (1; 1000, Cell Signaling) overnight. After incubation with a HRP conjugated anti-rabbit antibody (1:1500, GE Healthcare UK Ltd, Piscataway, N.J.), protein bands were visualized by chemiluminiscence (Thermo Scientific). GAPDH serves as an internal control.

Row | SMILES | leptin-induced TGFβ synthesis [1] | secretion of the STAT-associated protein periostin into the medium (JAK/STAT signaling; heated PDF, after 24 hrs, FIG. 1B) | STAT1 phosphorylation induced by heated PDF (JAK/STAT signaling; immortalized human mesothelial cell line, heat-sterilized PDF (30:70, medium:PDF) x 4 hrs, FIG. 1A) | structural integrity of the peritoneal membrane (peritoneal membrane) | caspase-3 cleavage induced by PDF (indication of cell death) (Met-5A cells)
1 | N#C/C(=C\c1ccc(O)c(O)c1)C(=O)NCc1ccccc1 [AG-490] | abolished | – | – | – | –
2 | CC(C)(C)c1nc2c3cc[nH]c(=O)c3c3cc(F)ccc3c2[nH]1 [P6] | – | attenuated | attenuated | preserved | reduced
